Results as given in patent US10806707B2, “Cannabis oil compositions and methods for preparation thereof” (priority 2015, dated 2020).
Read-outs that look alike come from different tables or passages of the source.

Key:
Assay type in all cases: cell-based
[1] = target: T1, CNR1 (also known as CB1) (Homo sapiens, UniProt P21554); settings: read-out: CNR1 cAMP EC50
T1 construct: β-galactosidase enzyme fragment (implied by the complementation read-out)

[2] = target: T1, CNR1 (also known as CB1); settings: read-out: CNR1 β-Arrestin EC50
[3] = target: T2, CNR2 (also known as CB2) (Homo sapiens, UniProt P34972); test: cAMP competitive inhibition immunoassay (HitHunter), CNR2 activation; settings: CNR2, cAMP assay
T2 construct: β-galactosidase enzyme fragment (implied by the complementation read-out)

[4] = target: T2, CNR2 (also known as CB2); test: β-arrestin GPCR assay (PathHunter), CNR2 activation; settings: CNR2, β-arrestin recruitment

T2 sequence (P34972 whole entry, species assumed, the tested form may be a part): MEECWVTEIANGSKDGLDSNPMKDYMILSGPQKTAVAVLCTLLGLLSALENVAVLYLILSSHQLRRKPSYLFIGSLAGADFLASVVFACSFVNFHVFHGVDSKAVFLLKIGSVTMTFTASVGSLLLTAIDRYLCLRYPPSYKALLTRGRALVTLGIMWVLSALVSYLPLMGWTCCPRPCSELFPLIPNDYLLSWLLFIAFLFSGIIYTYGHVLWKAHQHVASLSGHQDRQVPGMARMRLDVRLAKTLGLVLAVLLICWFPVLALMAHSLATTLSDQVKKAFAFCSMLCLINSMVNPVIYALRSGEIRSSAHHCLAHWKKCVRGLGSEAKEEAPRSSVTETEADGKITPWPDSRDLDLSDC
T1 sequence (P21554 whole entry, species assumed, the tested form may be a part): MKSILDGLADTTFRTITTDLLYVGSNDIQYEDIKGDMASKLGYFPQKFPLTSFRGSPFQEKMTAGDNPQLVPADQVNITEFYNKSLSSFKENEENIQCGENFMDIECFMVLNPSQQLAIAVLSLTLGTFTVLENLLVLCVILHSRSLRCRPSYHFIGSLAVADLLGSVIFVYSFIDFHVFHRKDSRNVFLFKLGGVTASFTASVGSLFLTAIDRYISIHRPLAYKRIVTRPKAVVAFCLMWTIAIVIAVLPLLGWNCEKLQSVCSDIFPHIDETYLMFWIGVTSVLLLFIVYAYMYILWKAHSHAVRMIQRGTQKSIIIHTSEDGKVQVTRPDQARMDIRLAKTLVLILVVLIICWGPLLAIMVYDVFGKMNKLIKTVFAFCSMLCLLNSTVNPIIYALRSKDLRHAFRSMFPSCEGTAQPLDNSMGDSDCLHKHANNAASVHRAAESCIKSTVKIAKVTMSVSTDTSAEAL

CCCCCc1cc(O)c2c(c1)OC(C)(C)[C@@H]1CCC(CO)=C[C@@H]21 [Example 11-OH-THC]
EC50 [1]: 10.8 nM
EC50 [2]: > 16.7 µM
EC50 [3]: 571 nM
EC50 [4]: > 16.7 µM
